Earlier results on one compound are cited in patent publication US20070190095A1, “Coffee and its derivatives as an animal repellent composition and its use in a molluscicide bait” (priority 2006, published 2007).

Each structure is given as a SMILES string.

The subject of the data set is snails. Particulars: 2% solution of caffeine in water sprayed on coconut husk-chip material in which orchids are grown.

As to `Cn1c(=O)c2c(ncn2C)n(C)c1=O` [caffeine, Caffeine], the snails killed is listed as 95%.
